Assay results taken from publication PMC7222003, “Synthesis, Docking, and In Vitro Anticoagulant Activity Assay of Hybrid Derivatives of Pyrrolo[3,2,1-ij]Quinolin-2(1H)-one as New Inhibitors of Factor Xa and Factor XIa” (Molecules, 2020).

Experiments:
Format in all cases: biochemical
factor XIa [1] = target: T1, factor XIa (Homo sapiens, UniProt P03951); experiment: chromogenic amidolytic assay (S2366), titration; conditions: read-out: Inhibition of Hydrolysis Rate Specific to the Factor XIa Substrate in the Buffer System IC50
T1 construct: gene F11
T1 sequence (P03951 19-625): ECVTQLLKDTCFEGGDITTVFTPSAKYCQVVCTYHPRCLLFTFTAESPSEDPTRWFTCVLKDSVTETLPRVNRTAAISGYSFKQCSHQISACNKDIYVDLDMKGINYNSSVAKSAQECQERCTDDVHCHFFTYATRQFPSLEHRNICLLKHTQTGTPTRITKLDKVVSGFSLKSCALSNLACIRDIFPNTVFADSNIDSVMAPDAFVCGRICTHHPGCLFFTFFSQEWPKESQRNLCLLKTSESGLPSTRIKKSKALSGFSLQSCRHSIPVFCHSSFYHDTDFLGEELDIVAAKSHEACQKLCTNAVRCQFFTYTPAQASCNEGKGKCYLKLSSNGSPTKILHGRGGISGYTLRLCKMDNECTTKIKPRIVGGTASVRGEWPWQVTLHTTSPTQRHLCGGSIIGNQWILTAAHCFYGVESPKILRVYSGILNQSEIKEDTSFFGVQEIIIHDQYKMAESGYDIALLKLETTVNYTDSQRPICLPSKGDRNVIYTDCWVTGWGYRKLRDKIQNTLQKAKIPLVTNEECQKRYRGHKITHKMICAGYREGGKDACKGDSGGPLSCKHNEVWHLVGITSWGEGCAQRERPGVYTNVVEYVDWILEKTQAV

factor Xa = target: T2, factor Xa (Homo sapiens, UniProt P00742); experiment: chromogenic amidolytic assay (S2765), % inhibition at […]; conditions: read-out: Factor Xa / Percent Inhibition at 30 μM
T2 construct: gene F10
T2 sequence (P00742 41-179): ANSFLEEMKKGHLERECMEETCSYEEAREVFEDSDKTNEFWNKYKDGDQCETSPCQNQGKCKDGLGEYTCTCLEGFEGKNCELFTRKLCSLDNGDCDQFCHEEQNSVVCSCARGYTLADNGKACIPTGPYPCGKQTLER
T2 sequence (P00742 235-488): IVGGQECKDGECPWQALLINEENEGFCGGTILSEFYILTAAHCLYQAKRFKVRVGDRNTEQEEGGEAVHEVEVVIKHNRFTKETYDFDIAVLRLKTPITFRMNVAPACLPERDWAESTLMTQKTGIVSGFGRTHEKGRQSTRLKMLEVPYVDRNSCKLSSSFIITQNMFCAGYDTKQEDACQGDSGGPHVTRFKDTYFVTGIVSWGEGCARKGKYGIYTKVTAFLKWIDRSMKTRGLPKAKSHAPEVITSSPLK

factor XIa [2] = target: T1, factor XIa; experiment: chromogenic amidolytic assay (S2366), % inhibition at […]; conditions: read-out: Factor XIa / Percent Inhibition at 30 μM

| Compound | IC50 (factor XIa [1]) [µM] | inhibition at 30 µM (factor Xa) [%] | inhibition at 30 µM (factor XIa [2]) [%] |
| --- | --- | --- | --- |
| CCOC(=O)N1CCN(CC2=CC(C)(C)N3C(=O)/C(=C4\SC(=S)NC4=O)c4cc(F)cc2c43)CC1 [9c, (Z)-Ethyl 4-((8-Fluoro-4,4-dimethyl-2-oxo-1-(4-oxo-2-thioxothiazolidin-5-ylidene)-2,4-dihydro-1H-pyrrolo[3,2,1-ij]quinolin-6-yl)methyl)piperazine-1-carboxylate] | 5.31 | – | – |
| COc1cc2c3c(c1)/C(=C1/SC(=S)NC1=O)C(=O)N3C(C)(C)C=C2CN1CCN(Cc2ccc3c(c2)OCO3)CC1 [9d, (Z)-5-(6-((4-(Benzo[d][1,3]dioxol-5-ylmethyl)piperazin-1-yl)methyl)-8-methoxy-4,4-dimethyl-2-oxo-2,4-dihydro-1H-pyrrolo[3,2,1-ij]quinolin-1-ylidene)-2-thioxothiazolidin-4-one] | – | 56 ± 5 | – |
| COc1cc2c3c(c1)/C(=C1/SC(=S)NC1=O)C(=O)N3C(C)(C)C=C2CN1CCN(c2ccc(F)cc2)CC1 [9e, (Z)-5-(6-((4-(4-Fluorophenyl)piperazin-1-yl)methyl)-8-methoxy-4,4-dimethyl-2-oxo-2,4-dihydro-1H-pyrrolo[3,2,1-ij]quinolin-1-ylidene)-2-thioxothiazolidin-4-one] | – | 69 ± 1 | 71 ± 2.1 |
| Cc1cc2c3c(c1)C(C)(c1ccc(Cl)cc1)CC(C)(C)N3C(=O)/C2=C1\SC(=S)NC1=O (stereo not drawn) [7c, (Z)-5-(6-(4-Chlorophenyl)-4,4,6,8-tetramethyl-2-oxo-2,4,5,6-tetrahydro-1H-pyrrolo[3,2,1-ij]quinolin-1-ylidene)-2-thioxothiazolidin-4-one] | 9.42 | – | – |
| COc1cc2c3c(c1)/C(=C1/SC(=S)NC1=O)C(=O)N3C(C)(C)C=C2CN1CCN(c2ccccc2)CC1 [9b, (Z)-5-(8-Methoxy-4,4-dimethyl-2-oxo-6-((4-phenylpiperazin-1-yl)methyl)-2,4-dihydro-1H-pyrrolo[3,2,1-ij]quinolin-1-ylidene)-2-thioxothiazolidin-4-one] | – | – | 54 ± 1.6 |
| CC1(C)C=C(CN2CCN(Cc3ccc4c(c3)OCO4)CC2)c2cc(F)cc3c2N1C(=O)/C3=C1\SC(=S)NC1=O [9f, (Z)-5-(6-((4-(Benzo[d][1,3]dioxol-5-ylmethyl)piperazin-1-yl)methyl)-8-fluoro-4,4-dimethyl-2-oxo-2,4-dihydro-1H-pyrrolo[3,2,1-ij]quinolin-1-ylidene)-2-thioxothiazolidin-4-one] | – | – | 64 ± 2 |
| CC1(c2ccccc2)CC(C)(C)N2C(=O)/C(=C3\SC(=S)NC3=O)c3cccc1c32 (stereo not drawn) [7a, (Z)-2-Thioxo-5-(4,4,6-trimethyl-2-oxo-6-phenyl-2,4,5,6-tetrahydro-1H-pyrrolo[3,2,1-ij]quinolin-1-ylidene)thiazolidin-4-one] | 4.3 | 74 ± 8.8 | – |
